This note sets out measurements from publication PMC6829886, “Inhibition of Non-Small Cell Lung Cancer Cells by Oxy210, an Oxysterol-Derivative that Antagonizes TGFβ and Hedgehog Signaling” (Cells, 2019).

For one assay, the system named is A549 cells. As to the kind of experiment: Matrigel invasion assay. It is filed as cell-based, human. To be noted: Matrigel chambers, 24 h. The procedure:
Invasion assays were performed using 24-well Matrigel invasion chambers (Corning, Corning, NY, USA), with the protocol provided by the manufacturer. A549 cells in 6-well plate starved in RPMI 1640 containing 0.1% FBS for 24 h were pre-treated with Oxy210 or DMSO for 2 h. 2 × 10^4 cells were seeded in each of the upper chambers containing RPMI 1640 supplemented with 0.1% FBS and the test agents. Each of the lower chambers contained RPMI 1640 supplemented with 5% FBS and the corresponding test agents. The cells were cultured for 24 h before assessment of cell invasion. Non-invaded cells in the upper surface of the membrane were removed using a cotton swab and the invaded cells in the lower surface were fixed and stained with 100% methanol and 0.4% trypan blue, respectively. The invaded cells were imaged and counted under the microscope at 40X total magnification.
Figure 9 Inhibition of TGFβ-induced invasive activity of A549 cells. In vitro invasion assays were performed using chambers with matrigel-coated membrane as described in the Materials and Methods section. (a) Images of invaded cells on the membranes. (b) Quantitative analysis of invasion of A549 cells induced by TGFβ in the absence or presence of Oxy210. Data from a representative experiment are reported as the mean of triplicate determinations ± SD (** p < 0.01 vs. TGFβ treated cells; ## p < 0.01 vs. control).

For a further assay, the system named is TβRI. As to the kind of experiment: Smad responsive luciferase reporter (CAGA12-Luc) in R1BL17 cells transfected with TGFβRI (WT or TD mutant). It counts as cell-based, mink. To be noted: 20 h. In general terms: In a reporter assay the amount or activity of a reporter protein is the signal.
A further assay addresses T1, Human TGFBR1 (Homo sapiens, UniProt P36897).
T1 construct: Human TGFBR1 (amino acid 200 to end); purchased Eurofins
T1 sequence (P36897 200-503 limits assumed): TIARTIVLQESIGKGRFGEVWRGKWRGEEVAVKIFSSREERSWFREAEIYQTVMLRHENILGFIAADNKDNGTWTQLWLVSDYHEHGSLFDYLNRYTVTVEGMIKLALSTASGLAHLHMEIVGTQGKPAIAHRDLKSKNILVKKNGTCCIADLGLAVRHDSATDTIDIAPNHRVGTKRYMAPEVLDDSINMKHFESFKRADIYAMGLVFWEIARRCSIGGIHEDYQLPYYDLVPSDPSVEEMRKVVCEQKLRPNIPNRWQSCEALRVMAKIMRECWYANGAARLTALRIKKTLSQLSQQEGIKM
As to the kind of experiment: TGFβ receptor I kinase inhibition assay (Eurofins). It is filed as biochemical. Particulars: vs. positive controls Cdk1/2 Inhibitor III and PKR Inhibitor. As for the experimental part:
Effect of Oxy210 on inhibition of TGFβ receptors I and II kinase activity was assessed by Eurofins (Celle-L’Evescault, France). TGFBR1 (h): Human TGFBR1 (amino acid 200 to end) was incubated with 8 mM MOPS pH 7.0, 0.2 mM EDTA, 1 mM MnCl2, 2 mg/mL casein, 10 mM Magnesium acetate and […] (specific activity and concentration as required). The reaction was initiated by the addition of the Mg/ATP mix. After incubation for 40 min at room temperature, the reaction was stopped by the addition of phosphoric acid to a concentration of 0.5%. 10 μL of the reaction was then spotted onto a P30 filtermat and washed four times for 4 min in 0.425% phosphoric acid and once in methanol prior to drying and scintillation counting. TGFBR2 (h): Human TGFBR2 (amino acid 188-end) was incubated with 20 mM Tris/HCl pH 8.5, 0.2 mM EDTA, 0.33 mg/mL MBP, 10 mM Magnesium acetate and [9-33P-ATP] (specific activity and concentration as required). The reaction was initiated by the addition of the Mg/ATP mix. After incubation for 120 min at room temperature, the reaction was stopped by the addition of phosphoric acid to a concentration of 0.5%. […]
Figure 11 Inhibition of TGFβ-induced Smad2/3 phosphorylation and transcriptional activity. […] Luciferase activity was measured and normalized to the Renilla luciferase activity. […]

For the compound `C[C@]12CC[C@H]3[C@@H](CC=C4C[C@@H](O)CC[C@@]43C)[C@@H]1CC[C@@H]2[C@](C)(O)CCc1cccnc1` [Oxy210, (3S,8S,9S,10R,13S,14S,17S)-17-((R)-2-hydroxy-4-(pyridin-3-yl)butan-2-yl)-10,13-dimethyl-2,3,4,7,8,9,10,11,12,13,14,15,16,17-tetradecahydro-1H-cyclopenta[a]phenanthren-3-ol], the TGFβ-induced invasive activity entry in the assay on A549 cells is listed as “inhibited this invasive activity in a dose dependent manner”. In the assay with TβRI, the “activity of Smad responsive reporter stimulated by TGFβ-activated RI or ligand independent RI_TD” value was “significantly inhibited”. The “inhibitory activity on TβRI in functional kinase assay” value against Human TGFBR1 was “did not display significant inhibitory activity”.
